Legend:
[1] = system: late watergrass; test: Test Example 1: herbicidal activity, application before weed generation under submerged conditions (Table 16, symbol A); type: in vivo, late watergrass (Echinochloa oryzicola); settings: amount of applied herbicide 320 g/ha
Summary of the method: (§1)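 Submerged Wagner pots (alluvial soil, 4 cm water) sown with weed seeds and planted with 2.5-leaf rice seedlings; emulsifiable concentrate diluted in water applied to water surface on sowing day. Held in greenhouse at 25-30 °C; injury scored 0-5 by herbicidal rate after three weeks.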

[2] = system: Japanese bulrush; test: Test Example 1: herbicidal activity, application before weed generation under submerged conditions (Table 16, symbol B); type: in vivo, Japanese bulrush (Schoenoplectus juncoides); settings: amount of applied herbicide 320 g/ha
Summary of the method: as §1

[3] = system: oval-leafed pondweed; test: Test Example 1: herbicidal activity, application before weed generation under submerged conditions (Table 16, symbol C); type: in vivo, oval-leafed pondweed (Monochoria vaginalis); settings: amount of applied herbicide 320 g/ha
Summary of the method: as §1

[4] = system: late watergrass; test: Test Example 2: herbicidal activity, application during weed generation under submerged conditions (Table 17, symbol A); type: in vivo, late watergrass (Echinochloa oryzicola); settings: AAH 320 g/ha; application during weed generation, submerged conditions
Summary of the method: (§2)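 Wagner pot, alluvial soil, 4 cm flood; mixed sowing of all species; greenhouse 25° C.–30° C. Emulsifiable formulation, water-diluted to predetermined dose, applied to paddy water at 1–2 leaf stage. Effect rated at 3 wk using the earlier test's scoring criteria.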

[5] = system: Japanese bulrush; test: Test Example 2: herbicidal activity, application during weed generation under submerged conditions (Table 17, symbol B); type: in vivo, Japanese bulrush (Schoenoplectus juncoides); settings: AAH 320 g/ha; application during weed generation, submerged conditions
Summary of the method: as §2

[6] = system: oval-leafed pondweed; test: Test Example 2: herbicidal activity, application during weed generation under submerged conditions (Table 17, symbol C); type: in vivo, oval-leafed pondweed (Monochoria vaginalis); settings: AAH 320 g/ha; application during weed generation, submerged conditions
Summary of the method: as §2

[7] = system: barnyard grass; test: Test Example 3: herbicidal effect by foliage application, Wagner pot (Table 18, symbol H); type: in vivo, barnyard grass (Echinochloa crus-galli); settings: for herbicidal effect on H: barnyard grass: amount of applied herbicide 320 g/ha
Summary of the method: (§3)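 Plants were sown in alluvial soil held under 0.1–0.5 cm standing water and grown 14 days in a greenhouse at 25–30 °C. An emulsifiable formulation, water-diluted to the set dose, was then sprayed onto the foliage, and effects were scored three weeks later using previously defined criteria.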

[8] = system: Chinese sprangletop; test: Test Example 3: herbicidal effect by foliage application, Wagner pot (Table 18, symbol D); type: in vivo, chinese sprangletop (Leptochloa chinensis); settings: for herbicidal effect on D: Chinese sprangletop: amount of applied herbicide 320 g/ha
Summary of the method: as §3

[9] = system: southern crabgrass; test: Test Example 4: herbicidal effect by soil treatment (Table 19, symbol F); type: in vivo, southern crabgrass (Digitaria ciliaris); settings: amount of applied herbicide 320 g/ha
Summary of the method: (§4)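 Three weeks of greenhouse growth at 25° C. to 30° C. followed a uniform surface spray of water-diluted emulsion at a predetermined herbicide amount. Seeds had been sown beforehand under about 1.5 cm of sterilized diluvial soil. Grading followed criteria set out in an earlier test.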

[10] = system: green foxtail; test: Test Example 4: herbicidal effect by soil treatment (Table 19, symbol G); type: in vivo, green foxtail (Setaria viridis); settings: amount of applied herbicide 320 g/ha
Summary of the method: as §4

[11] = system: barnyard grass; test: Test Example 4: herbicidal effect by soil treatment (Table 19, symbol H); type: in vivo, barnyard grass (Echinochloa crus-galli); settings: amount of applied herbicide 320 g/ha
Summary of the method: as §4

[12] = system: velvetleaf; test: Test Example 4: herbicidal effect by soil treatment (Table 19, symbol M); type: in vivo, velvetleaf (Abutilon theophrasti); settings: amount of applied herbicide 320 g/ha
Summary of the method: as §4

[13] = system: redroot pigweed; test: Test Example 4: herbicidal effect by soil treatment (Table 19, symbol N); type: in vivo, redroot pigweed (Amaranthus retroflexus); settings: amount of applied herbicide 320 g/ha
Summary of the method: as §4

[14] = system: lambsquarters; test: Test Example 4: herbicidal effect by soil treatment (Table 19, symbol O); type: in vivo, lambsquarters (Chenopodium album); settings: amount of applied herbicide 320 g/ha
Summary of the method: as §4

[15] = system: southern crabgrass; test: Test Example 5: herbicidal effect by foliage application, plastic box (Table 20, symbol F); type: in vivo, southern crabgrass (Digitaria ciliaris); settings: foliage application, 320 g/ha, three weeks after application
Summary of the method: (§5)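 Plants sown in sterilized diluvial soil and grown 14 days in a greenhouse at 25° C to 30° C, then sprayed on the foliage with the compound's emulsion diluted in water to a predetermined herbicide amount. Injury to weeds and crops scored three weeks after application on a visual rating scale.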

[16] = system: green foxtail; test: Test Example 5: herbicidal effect by foliage application, plastic box (Table 20, symbol G); type: in vivo, green foxtail (Setaria viridis); settings: foliage application, 320 g/ha, three weeks after application
Summary of the method: as §5

[17] = system: barnyard grass; test: Test Example 5: herbicidal effect by foliage application, plastic box (Table 20, symbol H); type: in vivo, barnyard grass (Echinochloa crus-galli); settings: foliage application, 320 g/ha, three weeks after application
Summary of the method: as §5

[18] = system: velvetleaf; test: Test Example 5: herbicidal effect by foliage application, plastic box (Table 20, symbol M); type: in vivo, velvetleaf (Abutilon theophrasti); settings: foliage application, 320 g/ha, three weeks after application
Summary of the method: as §5

[19] = system: redroot pigweed; test: Test Example 5: herbicidal effect by foliage application, plastic box (Table 20, symbol N); type: in vivo, redroot pigweed (Amaranthus retroflexus); settings: foliage application, 320 g/ha, three weeks after application
Summary of the method: as §5

[20] = system: lambsquarters; test: Test Example 5: herbicidal effect by foliage application, plastic box (Table 20, symbol O); type: in vivo, lambsquarters (Chenopodium album); settings: foliage application, 320 g/ha, three weeks after application
Summary of the method: as §5

[21] = system: rice flat sedge; test: Test Example 3: herbicidal effect by foliage application, Wagner pot (Table 18, symbol E); type: in vivo, rice flat sedge (Cyperus iria)
Summary of the method: as §3

[22] = system: wild oat; test: Test Example 5: herbicidal effect by foliage application, plastic box (Table 20, symbol I); type: in vivo, wild oat (Avena fatua); settings: foliage application, 320 g/ha, three weeks after application
Summary of the method: as §5

[23] = system: blackgrass; test: Test Example 5: herbicidal effect by foliage application, plastic box (Table 20, symbol J); type: in vivo, blackgrass (Alopecurus myosuroides); settings: foliage application, 320 g/ha, three weeks after application
Summary of the method: as §5

[24] = system: Italian ryegrass; test: Test Example 5: herbicidal effect by foliage application, plastic box (Table 20, symbol K); type: in vivo, Italian ryegrass (Lolium multiflorum); settings: foliage application, 320 g/ha, three weeks after application
Summary of the method: as §5

[25] = system: windgrass; test: Test Example 5: herbicidal effect by foliage application, plastic box (Table 20, symbol L); type: in vivo, windgrass (Apera spica-venti); settings: foliage application, 320 g/ha, three weeks after application
Summary of the method: as §5

[26] = system: persian speedwell; test: Test Example 5: herbicidal effect by foliage application, plastic box (Table 20, symbol R); type: in vivo, Persian speedwell (Veronica persica); settings: foliage application, 320 g/ha, three weeks after application
Summary of the method: as §5

Compound | Herbicidal effect, A: late watergrass [1] | Herbicidal effect, B: Japanese bulrush [2] | Herbicidal effect, C: oval-leafed pondweed [3] | herbicidal effect rating, A: late watergrass [4] | herbicidal effect rating, B: Japanese bulrush [5] | herbicidal effect rating, C: oval-leafed pondweed [6] | herbicidal effect on H: barnyard grass [7] | herbicidal effect on D: Chinese sprangletop [8] | herbicidal effect, F: southern crabgrass [9] | herbicidal effect, G: green foxtail [10] | herbicidal effect, H: barnyard grass [11] | herbicidal effect, M: velvetleaf [12] | herbicidal effect, N: redroot pigweed [13] | herbicidal effect, O: lambsquarters [14] | F: southern crabgrass, herbicidal effect grade [15] | G: green foxtail, herbicidal effect grade [16] | H: barnyard grass, herbicidal effect grade [17] | M: velvetleaf, herbicidal effect grade [18] | N: redroot pigweed, herbicidal effect grade [19] | O: lambsquarters, herbicidal effect grade [20] | also measured
COCCOc1ccc(-c2sc3ccc(F)cc3c2-c2c(O)cnn(C)c2=O)cc1 [2-441] | 3 (Herbicidal rate of 40% or more and less than 70%) | 3 (Herbicidal rate of 40% or more and less than 70%) | 3 (Herbicidal rate of 40% or more and less than 70%) | 3 (Herbicidal rate of 40% or more and less than 70%) | 0 (Herbicidal rate of 5% or less (almost no effect)) | 0 (Herbicidal rate of 5% or less (almost no effect)) | 5 (Herbicidal rate of 90% or more (almost completely withered)) | 0 (Herbicidal rate of 5% or less (almost no effect)) | 0 (Herbicidal rate of 5% or less (almost no effect)) | 0 (Herbicidal rate of 5% or less (almost no effect)) | 0 (Herbicidal rate of 5% or less (almost no effect)) | 1 (Herbicidal rate of 5% or more and less than 20%) | 4 (Herbicidal rate of 70% or more and less than 90%) | 4 (Herbicidal rate of 70% or more and less than 90%) | 4 (Herbicidal rate of 70% or more and less than 90%) | 5 (Herbicidal rate of 90% or more (almost completely withered)) | 5 (Herbicidal rate of 90% or more (almost completely withered)) | 5 (Herbicidal rate of 90% or more (almost completely withered)) | 5 (Herbicidal rate of 90% or more (almost completely withered)) | 5 (Herbicidal rate of 90% or more (almost completely withered)) | –
COCCOCc1ccc(-c2sc3ccc(F)cc3c2-c2c(O)c(C)nn(C)c2=O)cc1 [2-445] | 3 (Herbicidal rate of 40% or more and less than 70%) | 0 (Herbicidal rate of 5% or less (almost no effect)) | 0 (Herbicidal rate of 5% or less (almost no effect)) | 3 (Herbicidal rate of 40% or more and less than 70%) | 0 (Herbicidal rate of 5% or less (almost no effect)) | 0 (Herbicidal rate of 5% or less (almost no effect)) | – | – | 5 (Herbicidal rate of 90% or more (almost completely withered)) | 5 (Herbicidal rate of 90% or more (almost completely withered)) | 4 (Herbicidal rate of 70% or more and less than 90%) | 3 (Herbicidal rate of 40% or more and less than 70%) | 5 (Herbicidal rate of 90% or more (almost completely withered)) | 4 (Herbicidal rate of 70% or more and less than 90%) | 5 (Herbicidal rate of 90% or more (almost completely withered)) | 5 (Herbicidal rate of 90% or more (almost completely withered)) | 5 (Herbicidal rate of 90% or more (almost completely withered)) | 5 (Herbicidal rate of 90% or more (almost completely withered)) | 5 (Herbicidal rate of 90% or more (almost completely withered)) | 5 (Herbicidal rate of 90% or more (almost completely withered)) | –
CC(COc1ccc(-c2sc3ccc(F)cc3c2-c2c(O)c(C)nn(C)c2=O)cc1)=NO [2-453] | 3 (Herbicidal rate of 40% or more and less than 70%) | 3 (Herbicidal rate of 40% or more and less than 70%) | 3 (Herbicidal rate of 40% or more and less than 70%) | 3 (Herbicidal rate of 40% or more and less than 70%) | 4 (Herbicidal rate of 70% or more and less than 90%) | 4 (Herbicidal rate of 70% or more and less than 90%) | 5 (Herbicidal rate of 90% or more (almost completely withered)) | 3 (Herbicidal rate of 40% or more and less than 70%) | 5 (Herbicidal rate of 90% or more (almost completely withered)) | 5 (Herbicidal rate of 90% or more (almost completely withered)) | 5 (Herbicidal rate of 90% or more (almost completely withered)) | 5 (Herbicidal rate of 90% or more (almost completely withered)) | 5 (Herbicidal rate of 90% or more (almost completely withered)) | 5 (Herbicidal rate of 90% or more (almost completely withered)) | 5 (Herbicidal rate of 90% or more (almost completely withered)) | 5 (Herbicidal rate of 90% or more (almost completely withered)) | 5 (Herbicidal rate of 90% or more (almost completely withered)) | 5 (Herbicidal rate of 90% or more (almost completely withered)) | 5 (Herbicidal rate of 90% or more (almost completely withered)) | 5 (Herbicidal rate of 90% or more (almost completely withered)) | herbicidal effect on E: rice flat sedge ([21]; amount of applied herbicide 320 g/ha): 2 (Herbicidal rate of 20% or more and less than 40%)
CCCC(=O)Oc1c(C)nn(C)c(=O)c1-c1c(-c2ccc(F)cc2OCC)sc2cc(C)c(C)cc12 [5-104] | 4 (Herbicidal rate of 70% or more and less than 90%) | 0 (Herbicidal rate of 5% or less (almost no effect)) | 0 (Herbicidal rate of 5% or less (almost no effect)) | 4 (Herbicidal rate of 70% or more and less than 90%) | 4 (Herbicidal rate of 70% or more and less than 90%) | 4 (Herbicidal rate of 70% or more and less than 90%) | – | – | – | – | – | – | – | – | – | – | – | – | – | – | herbicidal effect on barnyard grass (H) ([7]; 320 g/ha): 5 (Herbicidal rate of 90% or more (almost completely withered)); herbicidal effect on Chinese sprangletop (D) ([8]; 320 g/ha): 5 (Herbicidal rate of 90% or more (almost completely withered)); herbicidal effect on rice flat sedge (E) ([21]; 320 g/ha): 4 (Herbicidal rate of 70% or more and less than 90%); herbicidal effect on southern crabgrass (F) [15]: 5 (Herbicidal rate of 90% or more (almost completely withered)); herbicidal effect on green foxtail (G) [16]: 4 (Herbicidal rate of 70% or more and less than 90%); herbicidal effect on barnyard grass (H) [17]: 4 (Herbicidal rate of 70% or more and less than 90%); herbicidal effect on wild oat (I) [22]: 4 (Herbicidal rate of 70% or more and less than 90%); herbicidal effect on blackgrass (J) [23]: 4 (Herbicidal rate of 70% or more and less than 90%); herbicidal effect on Italian ryegrass (K) [24]: 4 (Herbicidal rate of 70% or more and less than 90%); herbicidal effect on windgrass (L) [25]: 4 (Herbicidal rate of 70% or more and less than 90%); herbicidal effect on velvetleaf (M) [18]: 4 (Herbicidal rate of 70% or more and less than 90%); herbicidal effect on lambsquarters (O) [20]: 4 (Herbicidal rate of 70% or more and less than 90%); herbicidal effect on persian speedwell (R) [26]: 5 (Herbicidal rate of 90% or more (almost completely withered))
